# Paper PMC3723327 (Journal of biomolecular screening, 2012)
# How the values were obtained:
# MEKK2 [1] = target: T1, MEKK2 (Homo sapiens, UniProt Q9Y2U5); assay: MEKK2 intrinsic ATPase activity assay; assay type: biochemical; conditions: for inhibition at 1 µM: read-out: Inhibition in MEKK2 intrinsic ATPase assay screen (hit criterion)
# T1 sequence (Q9Y2U5 1-619): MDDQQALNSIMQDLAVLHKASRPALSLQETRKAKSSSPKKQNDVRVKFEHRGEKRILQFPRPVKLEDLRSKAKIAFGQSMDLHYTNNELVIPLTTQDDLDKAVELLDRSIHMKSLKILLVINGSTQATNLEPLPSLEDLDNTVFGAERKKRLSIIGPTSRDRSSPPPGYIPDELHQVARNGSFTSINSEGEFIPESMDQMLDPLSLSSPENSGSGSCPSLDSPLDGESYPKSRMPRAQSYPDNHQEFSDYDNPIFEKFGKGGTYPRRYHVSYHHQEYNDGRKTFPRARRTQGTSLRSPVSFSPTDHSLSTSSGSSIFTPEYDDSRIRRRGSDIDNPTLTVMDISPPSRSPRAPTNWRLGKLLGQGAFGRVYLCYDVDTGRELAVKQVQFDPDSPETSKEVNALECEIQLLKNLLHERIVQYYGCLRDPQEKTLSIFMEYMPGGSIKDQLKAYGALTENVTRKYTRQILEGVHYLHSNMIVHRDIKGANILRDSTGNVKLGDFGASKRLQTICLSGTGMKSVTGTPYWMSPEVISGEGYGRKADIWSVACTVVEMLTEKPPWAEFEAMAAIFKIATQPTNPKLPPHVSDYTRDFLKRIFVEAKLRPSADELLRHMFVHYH
# MEKK2 [2] = conditions: read-out: Published MEKK2 Binding Assay IC50; TR-FRET binding assay; ref Invitrogen Lanthascreen Eu Kinase Binding Assay for MEKK2 Validation Packet; cited from earlier work
# MEKK2 [3] = target: T1, MEKK2; assay: MEKK2 TR-FRET binding assay; conditions: 5 nM MEKK2, 25 nM kinase tracer 236
# MEKK2 [4] = target: T2, MEKK2 (Homo sapiens, UniProt Q9Y2U5); assay: MEKK2 intrinsic ATPase activity assay; assay type: biochemical; conditions: MEKK2 from vendor 3 (catalytic domain only)
# T2 sequence (Q9Y2U5 357-619): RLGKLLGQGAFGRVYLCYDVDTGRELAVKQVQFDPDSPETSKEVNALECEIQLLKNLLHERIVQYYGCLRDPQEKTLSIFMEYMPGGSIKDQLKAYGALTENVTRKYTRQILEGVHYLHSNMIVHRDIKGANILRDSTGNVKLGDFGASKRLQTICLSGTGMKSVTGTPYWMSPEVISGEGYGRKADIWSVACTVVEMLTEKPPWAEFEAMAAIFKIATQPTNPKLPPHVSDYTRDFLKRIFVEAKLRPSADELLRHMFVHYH
# MEKK2 [5] = assay: MEKK2 intrinsic ATPase activity assay; assay type: biochemical, human; conditions: high compound concentrations
# MEKK2 [6] = target: T1, MEKK2; assay: MEKK2 transphosphorylation activity assay; assay type: biochemical; conditions: 2 nM MEKK2, 200 nM MKK6, 3 μM ATP
# [7] = 10 nM MEKK2 (vendor 1), 30 μM ATP
compound,measurement,setting,value
Cc1cc(Nc2cc(N3CCN(C)CC3)nc(Sc3ccc(NC(=O)C4CC4)cc3)n2)[nH]n1 [VX-680],MEKK2 Intrinsic ATPase Assay Hill Slope ± SD,MEKK2 [1]; [7],0.97 ± 0.13
same,IC50,MEKK2 [2],2300 nM
Cc1ccc(Nc2nccc(N(C)c3ccc4c(C)n(C)nc4c3)n2)cc1S(N)(=O)=O [Pazopanib],MEKK2 Intrinsic ATPase Assay Hill Slope ± SD,MEKK2 [1]; [7],1.06 ± 0.07
same,inhibition at 1 µM,MEKK2 [1],≥ 50%
same,Binding Assay Hill Slope ± SD,MEKK2 [3],1.05 ± 0.03
CCN(CC)CCNC(=O)c1c(C)[nH]c(/C=C2\C(=O)Nc3ccc(F)cc32)c1C [Sunitinib],MEKK2 Intrinsic ATPase Assay Hill Slope ± SD,MEKK2 [1]; [7],1.06 ± 0.16
same,Difference in IC50 values between ATPase and binding assay,MEKK2 [1]; ATPase assay vs TR-FRET binding assay,2.4 fold
same,Intrinsic ATPase assay Hill slope ± SD,MEKK2 [1]; MEKK2 from vendor 2,1.01 ± 0.02
same,Intrinsic ATPase assay Hill slope ± SD,MEKK2 [4],1.01 ± 0.05
same,Inhibition of ATPase activity at high compound concentrations,MEKK2 [5],complete inhibition
same,Transphosphorylation Assay Hill Slope ± SD,MEKK2 [6],0.96 ± 0.15
same,Binding Assay Hill Slope ± SD,MEKK2 [3],0.89 ± 0.04
COc1cc(Nc2c(C#N)cnc3cc(OCCCN4CCN(C)CC4)c(OC)cc23)c(Cl)cc1Cl [Bosutinib],MEKK2 Intrinsic ATPase Assay Hill Slope ± SD,MEKK2 [1]; [7],1.07 ± 0.09
same,inhibition at 1 µM,MEKK2 [1],≥ 50%
same,Transphosphorylation Assay Hill Slope ± SD,MEKK2 [6],1.03 ± 0.21
same,Binding Assay Hill Slope ± SD,MEKK2 [3],0.93 ± 0.05
CN[C@@H]1C[C@H]2O[C@@](C)([C@@H]1OC)n1c3ccccc3c3c4c(c5c6ccccc6n2c5c31)C(=O)NC4 [Staurosporine],MEKK2 Intrinsic ATPase Assay Hill Slope ± SD,MEKK2 [1]; 1 nM (instead of 10 nM) MEKK2 enzyme,0.93 ± 0.13
Cc1nc(Nc2ncc(C(=O)Nc3c(C)cccc3Cl)s2)cc(N2CCN(CCO)CC2)n1 [Dasatinib],MEKK2 Intrinsic ATPase Assay Hill Slope ± SD,MEKK2 [1]; [7],1.10 ± 0.20
